Assay: Pharmacokinetics in whole blood of healthy mice
Assay type: in vivo, MF1 mice
Details: for Cmax: measured as Pd
Method: Pharmacokinetic parameters of AJ-5 were determined after IV, IP and PO dosing to MF1 nude mice randomly divided into groups. AJ-5 was prepared in the respective formulations immediately prior to dosing. For the IV group, the compound was made up in a mixture of 10% DMSO and 90% of an IV mixture, which consisted of 60% propylene glycol, 10% ethanol and 30% polyethylene glycol. For the PO group, AJ-5 was dissolved in DMSO and a hydroxypropylmethylcellulose solution (0.5% in water) containing 0.2% Tween 80 in a ratio of 1:9. For the IP group, AJ-5 was dissolved in 10% DMSO and 90% phosphate buffer solution. Mice were permitted access to food and water ad libitum. AJ-5 was administered (100 μL) by oral gavage at a dose of 20 mg/kg (n = 3), intravenously into the penile dorsal vein at a dose of 2 mg/kg (n = 2) and intraperitoneally at a dose of 2 mg/kg (n = 3).
Blood samples (20 μL per sample) were collected by tail tip bleeding in lithium heparin tubes at predetermined time points to evaluate the kinetic profile over 24 h. Samples were stored at −80 °C until analysis. Blood samples together with calibration standards and quality controls were quantified using inductively coupled plasma mass spectrometry. All results reported are for palladium (Pd). Pharmacokinetic parameters of the AJ-5 complex were determined using non-compartmental analysis in PK Solutions 2.0 (Summit Research Systems, Montrose CO, USA).

Compound: CC(C)c1cccc(C(C)C)c1[N+]1=Cc2cccc[c]2[Pd-2]1([Cl])[P+](CC[P+](c1ccccc1)(c1ccccc1)[Pd-2]1([Cl])[c]2ccccc2C=[N+]1c1c(C(C)C)cccc1C(C)C)(c1ccccc1)c1ccccc1 (stereo not drawn) [AJ-5]
- AUC0-∞ (IP 2 mg/kg): 88 ± 67 µmol·min/L
- BA (IP 2 mg/kg): 49 ± 38%
- Tmax (IP 2 mg/kg): 4.0 ± 0.00 h
- area under the curve (IP 2 mg/kg): 88 min.µM/L
- Cmax (IP 2 mg/kg): 30 ± 10 nM
- AUC0-∞ (IV 2 mg/kg): 179 ± 12 µmol·min/L
- CL (IV 2 mg/kg): 9.2 mL/min/kg
- Vd (IV 2 mg/kg): 8.8 L/kg
- t1/2 (IV 2 mg/kg, 2 mg/kg): 11.2 ± 4.8 h
- AUC0-∞ (PO 20 mg/kg): 11 ± 2 µmol·min/L
- BA (PO 20 mg/kg): 1 ± 0.1%
- Tmax (PO 20 mg/kg): 0.8 ± 0.3 h
- area under the curve (PO 20 mg/kg): 11 min.µM/L
- Cmax (PO 20 mg/kg): 6 ± 7 nM
- Exposure after IP 2 mg/kg compared to PO 20 mg/kg (ratio of AUC): eight-fold higher

From paper PMC6349869, “The palladacycle complex AJ-5 induces apoptotic cell death while reducing autophagic flux in rhabdomyosarcoma cells” (Cell Death Discovery, 2019)
